In brackets after ≈: the same amount, converted by molar mass. Like-named read-outs stand apart in the source and are kept apart here.
What was measured:
[1] = tested on: K562 human myeloid cell line; assay: In vitro toxicity in human cells, propidium iodide flow cytometry, minimum toxic concentration
Protocol: The final concentration of DMSO was less than 5%, and a DMSO control was included. The mixtures were incubated at doubling dilutions (approximately 1000 μM-10 μM range) of inhibitor for 15 hours at 37° C. At this time propidium iodide was added (1 μg/mL) and the mixture incubated at 30 min. at 4° C. The cells were washed once with medium, centrifuged, and resuspended in 2% bovine serum albumin/phosphate-buffered saline. The cell suspension was then run through a FAC Saliber flow cytometer and approximately 5000 cells were counted. The proportion of dead (stained) cells was determined, and the percent of live cells was expressed as % controls.

[2] = target: T1, bacterial NAD synthetase enzyme (Bacillus subtilis, UniProt P08164); assay: biochemical; type: biochemical; conditions: for Km: 0.2 mL Assay (microtiter plate), substrate
T1 sequence (P08164 2-272 limits assumed): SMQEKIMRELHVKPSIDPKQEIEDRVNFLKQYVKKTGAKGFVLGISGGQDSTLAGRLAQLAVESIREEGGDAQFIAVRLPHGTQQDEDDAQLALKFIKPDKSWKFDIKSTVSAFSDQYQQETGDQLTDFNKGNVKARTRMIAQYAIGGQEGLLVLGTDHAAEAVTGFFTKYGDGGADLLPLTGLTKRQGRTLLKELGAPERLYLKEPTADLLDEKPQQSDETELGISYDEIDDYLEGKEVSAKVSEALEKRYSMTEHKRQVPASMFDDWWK

[3] = tested on: Staphylococcus epidermitis; assay: Dose response of bacterial growth inhibition, MIC85; conditions: for MIC: Staphylococcus, read-out: MIC85; for MIC85: minimum inhibitory concentration to achieve 85% inhibition, S. epidermitis
[4] = tested on: Staphylococcus epidermitis; assay: Bacterial growth inhibition screen in LB media (absorbance 595 nm), percent inhibition; conditions: for inhibition of growth at 10 µM / inhibition of growth at 100 µM: Staphylococcus, read-out: % Inhibition, S. epidermitis; for % Inhibition: S. epidermitis
[5] = target: T1, bacterial NAD synthetase enzyme; conditions: 2 mL Assay (cuvette); substrate; double reciprocal plots
B. subtilis = assay: Dose response of bacterial growth inhibition, MIC85; conditions: Bacillus subtilis, read-out: MIC85
[6] = substrate: Nc1ncnc2c1ncn2[C@@H]1O[C@H](COP(=O)(O)OP(=O)(O)OP(=O)(O)O)[C@@H](O)[C@H]1O; assay: purified protein, by the assay type; conditions: substrate, pH 8.5
[7] = K562 human myeloid cells, 15 hours at 37° C., propidium iodide
[8] = compound at 0.2 mM (Table 312A)
[9] = lead compounds (Table 318A), read-out: IC 50
[10] = other: 2 mL Assay (cuvette), double reciprocal plots

COC(=O)c1cc2ccccc2n1CCCCCCCCOC(=O)c1cccnc1 [Compound 949]
Minimum Toxic Dose [1, 7]: 200 µM

COC(=O)c1cc2cc(OCc3ccccc3)ccc2n1CCCCCCOC(=O)c1cccnc1 [Compound 951]
Minimum Toxic Dose [1, 7]: 500 µM

CC(=O)c1ccc2[nH]c(CCCCCCCCOC(=O)Cc3ccc[n+](C)c3)cc2c1 [Compound 939]
IC50 [2]: 25 µM | inhibition at 250 µM [2]: 97.8% | Minimum Toxic Dose ([1]; human, 15 h): 500 µM

COC(=O)C=Cc1cn(CCCCCCCCC[n+]2cccc(C(=O)OC)c2)c2ccccc12 [Compound 270]
IC50 [2]: 60 µM | MIC [3]: 10 µM | Minimum Toxic Dose ([1]; human, 15 h): 200 µM | inhibition of growth at 10 µM ([4]; concentration screened 10 uM): 97.5%

Fc1cc(F)c2[nH]c(CCCC[n+]3cccc4ccccc43)cc2c1 [Compound 409]
% Inhibition [2, 8]: 19.02% | Minimum Toxic Dose [1, 7]: 200 µM | % Inhibition ([4]; concentration screened 10 uM): 2.44%

COC(=O)c1cc2ccccc2n1CCCCCCOC(=O)c1cccnc1 [Compound 947]
Minimum Toxic Dose [1, 7]: 200 µM

Nc1ncnc2c1ncn2[C@@H]1O[C@H](COP(=O)(O)OP(=O)(O)OC[C@H]2O[C@@H]([n+]3cccc(C(=O)O)c3)[C@H](O)[C@@H]2O)[C@@H](O)[C@H]1O [NaAD, nictonic acid dinucleotide, reference compound]
Km [5]: 75 µM | Vmax [5]: 286 nM/s | Km [2]: 76 µM

COC(=O)c1cc2cc(OCc3ccccc3)ccc2n1CCCCCCCOC(=O)c1ccc[n+](C)c1 [Compound 976]
MIC (B. subtilis): 10 µM | IC50 [2]: 20 µM | inhibition at 100 µM [2]: 71%

COC(=O)c1cc2cc(OCc3ccccc3)ccc2n1CCCCCCCCOC(=O)c1cccnc1 [Compound 953]
Minimum Toxic Dose [1, 7]: 100 µM

COC(=O)c1cc2ccccc2n1CCCCCCCCOC(=O)Cc1ccc([N+](C)(C)C)cc1 [Compound 985]
MIC (B. subtilis): 10 µM | IC50 [2]: 15 µM | inhibition at 50 µM [2]: 92.1%

COC(=O)c1cc2ccccc2n1CCCCCCCOC(=O)c1cccnc1 [Compound 948]
% Inhibition ([2]; compound at 0.05 mM): 2.52% | Minimum Toxic Dose [1, 7]: 200 µM

COC(=O)c1cc2cc(OCc3ccccc3)ccc2n1CCCCCCCCCOC(=O)Cc1ccc([N+](C)(C)C)cc1 [Compound 990]
MIC (B. subtilis): 10 µM | IC50 [2]: 20 µM | inhibition at 200 µM [2]: 92.2%

C[n+]1cccc(C(=O)OCCCCCCCCn2ccc3cc(OCc4ccccc4)ccc32)c1 [Compound 769]
MIC (B. subtilis): 3 µM | inhibition at 100 µM [2]: 98.3% | IC50 [2, 9]: 20 µM | MIC [3]: 10 µM | inhibition of growth at 100 µM ([4]; concentration screened 100 uM): 95.9%

N [NH3, ammonia]
Km [5]: 2880 µM | Vmax [5]: 137 nM/s

C[N+](C)(C)c1ccc(CC(=O)OCCCCCn2ccc3cc(OCc4ccccc4)ccc32)cc1 [Compound 746]
IC50 [2]: 50 µM | inhibition at 100 µM [2]: 91.3% | MIC [3]: 10 µM | inhibition of growth at 10 µM ([4]; concentration screened 10 uM): 96.8%

COC(=O)c1cc2ccccc2n1CCCCCCCOC(=O)Cc1ccc([N+](C)(C)C)cc1 [Compound 984]
MIC (B. subtilis): 30 µM | IC50 [2]: 20 µM | inhibition at 50 µM [2]: 87.5%

COC(=O)c1cc2cc(OCc3ccccc3)ccc2n1CCCCCCCCOC(=O)c1ccc[n+](C)c1 [Compound 977]
MIC (B. subtilis): 10 µM | IC50 [2]: 10 µM | inhibition at 100 µM [2]: 87.6%

O=C(O)C=Cc1cn(CCCCCCCCC[n+]2cccc(C(=O)[O-])c2)c2ccccc12 [Compound 274]
Minimum Toxic Dose [1, 7]: 300 µM

C[n+]1cccc(C(=O)OCCCCCn2ccc3cc(OCc4ccccc4)ccc32)c1 [Compound 766]
IC50 [2]: 65 µM | inhibition at 100 µM [2]: 91.2% | MIC [3]: 30 µM | inhibition of growth at 10 µM ([4]; concentration screened 10 uM): 90.5%

C[N+](C)(C)c1ccc(CC(=O)OCCCCCCCCn2ccc3cc(OCc4ccccc4)ccc32)cc1 [Compound 749]
MIC (B. subtilis): 3 µM | IC50 [2]: 25 µM | inhibition at 100 µM [2]: 98.2% | MIC [3]: 10 µM | inhibition of growth at 100 µM ([4]; concentration screened 100 uM): 98.7%

[Mg+2] [Mg^+2, magnesium]
Km [5]: 2600 µM | Vmax [5]: 120 nM/s | Km [2]: 2900 µM

Cc1ccc2[nH]c(CCCCC[n+]3ccccc3)cc2c1 [Compound 296]
% Inhibition [2, 8]: 16.79% | MIC85 [3]: 30 µM | % Inhibition ([4]; concentration screened 10 uM): 87.47%

O=C(OCCCCCn1ccc2cc([N+](=O)[O-])ccc21)c1cnc2ccccc2c1 [Compound 831]
% Inhibition ([2]; compound at 0.1 mM (Table 314)): 26.21% | MIC85 [3]: 30 µM (≈ 12.1 µg/mL) | % Inhibition ([4]; concentration screened 10 uM): 84.68%

C[N+](C)(C)c1ccc(CC(=O)OCCCCCCCn2ccc3cc(OCc4ccccc4)ccc32)cc1 [Compound 748]
inhibition at 100 µM [2]: 98.4% | IC50 [2, 9]: 30 µM | MIC [3]: 10 µM | inhibition of growth at 100 µM ([4]; concentration screened 100 uM): 98.4%

Cc1ccc2[nH]c(CCCC[n+]3ccccc3)cc2c1 [Compound 295]
% Inhibition ([2]; compound at 0.1 mM (Table 314)): 25.05% | MIC85 [3]: 10 µM | % Inhibition ([4]; concentration screened 10 uM): 94.48%

C[n+]1cccc(C(=O)OCCCCCCn2ccc3cc(OCc4ccccc4)ccc32)c1 [Compound 767]
IC50 [2]: 60 µM | inhibition at 100 µM [2]: 96% | MIC [3]: 10 µM | inhibition of growth at 100 µM ([4]; concentration screened 100 uM): 91.8%

COC(=O)c1cc2cc(OCc3ccccc3)ccc2n1CCCCCCCCC[n+]1ccccc1 [Compound 230]
MIC (B. subtilis): 10 µM | inhibition at 100 µM [2]: 93.1% | MIC [3]: 3 µM | inhibition of growth at 100 µM ([4]; concentration screened 100 uM): 95.5%

COc1ccc2c(ccn2CCCCCCCOC(=O)Cc2ccc([N+](C)(C)C)cc2)c1 [Compound 743]
% Inhibition ([2]; compound at 0.1 mM (Table 314)): 94.10% | MIC85 [3]: 10 µM | % Inhibition ([4]; concentration screened 10 uM): 97.67%

COC(=O)c1cc2ccccc2n1CCCCCCCCC[n+]1ccccc1 [Compound 182]
IC50 [2]: 60 µM | inhibition at 100 µM [2]: 95.4% | MIC [3]: 10 µM | inhibition of growth at 100 µM ([4]; concentration screened 100 uM): 97.7%

Fc1cc(F)c2[nH]c(CCCCC[n+]3ccc4ccccc4c3)cc2c1 [Compound 518]
% Inhibition ([2]; compound at 0.1 mM (Table 314)): 30.39% | MIC85 [3]: 30 µM | % Inhibition ([4]; concentration screened 100 uM): 100.00%

COC(=O)c1cc2cc(OCc3ccccc3)ccc2n1CCCCCCCOC(=O)Cc1ccc([N+](C)(C)C)cc1 [Compound 988]
MIC (B. subtilis): 10 µM | inhibition at 100 µM [2]: 84.3%

CN(C)c1ccc(CC(=O)OCCCCCCCCCn2ccc3cc([N+](=O)[O-])ccc32)cc1 [Compound 853]
% Inhibition ([2]; compound at 0.1 mM (Table 314)): 73.46% | IC50 [2, 9]: 45 µM | MIC85 [3]: 30 µM (≈ 14 µg/mL) | % Inhibition ([4]; concentration screened 10 uM): 98.58%

COC(=O)c1cc2ccccc2n1CCCCCCCCCOC(=O)Cc1ccc([N+](C)(C)C)cc1 [Compound 986]
MIC (B. subtilis): 10 µM | inhibition at 50 µM [2]: 30.8% | IC50 [2, 9]: 10 µM

CCCCc1ccc2[nH]c(CCCCCC[n+]3ccccc3)cc2c1 [Compound 315]
IC50 [2]: 100 µM | inhibition at 100 µM [2]: 77.2% | MIC [3]: 30 µM | inhibition of growth at 100 µM ([4]; concentration screened 100 uM): 100%

B1: bacterial NAD synthetase enzyme (Bacillus subtilis subsp. subtilis str. 168) (protein)
chain: T1 sequence (P08164 2-272 limits assumed)
Km ([6]; other: 0.2 mL Assay (microtiter plate)): 152 µM | Km [6, 10]: 120 µM | Vmax [6, 10]: 436 nM/s

From US6727237B2, “Inhibitors of bacterial NAD synthetase” (priority 1998, dated 2004)
